From patent US20170190671A1, “BIS(ARYL)CATECHOL DERIVATIVES AS HERBICIDES” (E I DU PONT DE NEMOURS AND COMPANY, priority 2014, published 2017)

Columns and labels:
Test in all cases: Test C preemergence
Format in all cases: in vivo
[1] = system: Italian ryegrass (Lolium multiflorum); conditions: Lolium multiflorum, pre-emergence, 336 h, preemergence, scale 0 to 100, read-out: Plant response rating, Ryegrass, Italian
Outline: (§1)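 0-100 visual injury score (100 = complete control), assessed at 13-15 d after treatment against controls; surfactant-containing solvent formulation applied preemergence to seeded loam-sand soil or sprayed onto 1- to 4-leaf greenhouse plants.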

[2] = system: barnyardgrass (Echinochloa crus-galli); conditions: Echinochloa crus-galli, pre-emergence, preemergence, scale 0 to 100, read-out: Plant response rating, Barnyardgrass
Outline: as §1

[3] = system: blackgrass (Alopecurus myosuroides); conditions: Alopecurus myosuroides, pre-emergence, 336 h, preemergence, scale 0 to 100, read-out: Plant response rating, Blackgrass
Outline: as §1

corn (Zea mays) = conditions: Zea mays, pre-emergence, 336 h, preemergence, scale 0 to 100
Outline: as §1

[4] = system: giant foxtail (Setaria faberii); conditions: Setaria faberi, pre-emergence, 336 h, preemergence, scale 0 to 100, read-out: Plant response rating, Foxtail, Giant
Outline: as §1

[5] = system: johnsongrass (Sorghum halepense); conditions: Sorghum halepense, pre-emergence, 336 h, preemergence, scale 0 to 100, read-out: Plant response rating, Johnsongrass
Outline: as §1

[6] = system: lambsquarters (Chenopodium album); conditions: Chenopodium album, pre-emergence, 336 h, preemergence, scale 0 to 100, read-out: Plant response rating, Lambsquarters
Outline: as §1

[7] = system: large (Lg) crabgrass (Digitaria sanguinalis); conditions: Digitaria sanguinalis, pre-emergence, 336 h, preemergence, scale 0 to 100, read-out: Plant response rating, Crabgrass, Large
Outline: as §1

[8] = system: pigweed (Amaranthus retroflexus); conditions: Amaranthus retroflexus, pre-emergence, 336 h, preemergence, scale 0 to 100, read-out: Plant response rating, Pigweed
Outline: as §1

[9] = system: ragweed (common ragweed, Ambrosia elatior); conditions: Ambrosia artemisiifolia, pre-emergence, 336 h, preemergence, scale 0 to 100, read-out: Plant response rating, Ragweed
Outline: as §1

soybean (Glycine max) = conditions: Glycine max, pre-emergence, preemergence, scale 0 to 100, read-out: Plant response rating, Soybean
Outline: as §1

[10] = system: velvetleaf (Abutilon theophrasti); conditions: Abutilon theophrasti, pre-emergence, preemergence, scale 0 to 100, read-out: Plant response rating, Velvetleaf
Outline: as §1

[11] = system: winter wheat (Triticum aestivum); conditions: Triticum aestivum, pre-emergence, 336 h, preemergence, scale 0 to 100, read-out: Plant response rating, Wheat
Outline: as §1

[12] = system: yellow nutsedge (Cyperus esculentus); conditions: Cyperus, pre-emergence, 336 h, preemergence, scale 0 to 100, read-out: Plant response rating, Nutsedge, Yellow
Outline: as §1

Compound `Clc1cnc(Oc2cccc(Cl)c2Oc2ncc(Br)cn2)nc1` [Compound 17, 5-bromo-2-[2-chloro-6-[(5-chloro-2-pyrimidinyl)oxy]phenoxy]pyrimidine] has a pest or weed control at 31 g/ha ([1]; 31 g ai/ha) of 20%, a pest or weed control at 62 g/ha ([1]; 62 g ai/ha) of 40% and a pest or weed control at 125 g/ha ([1]; 125 g ai/ha) of 90%. The pest or weed control at 250 g/ha ([1]; 250 g ai/ha) was 95%, the pest or weed control at 31 g/ha ([2]; 31 g ai/ha) was 20% and the pest or weed control at 62 g/ha ([2]; 62 g ai/ha) was 85%. It also gave a pest or weed control at 125 g/ha ([2]; 125 g ai/ha) of 100%, a pest or weed control at 250 g/ha ([2]; 250 g ai/ha) of 100% and a pest or weed control at 31 g/ha ([3]; 31 g ai/ha) of 60%. The pest or weed control at 62 g/ha ([3]; 62 g ai/ha) was 90%, the pest or weed control at 125 g/ha ([3]; 125 g ai/ha) was 95% and the Corn plant response rating (crop injury, 0 = no effect, 100 = complete kill) at 31 g/ha (corn (Zea mays); 31 g ai/ha) was 0%. It also gave a Corn plant response rating (crop injury, 0 = no effect, 100 = complete kill) at 62 g/ha (corn (Zea mays); 62 g ai/ha) of 15%, a Corn plant response rating (crop injury, 0 = no effect, 100 = complete kill) at 125 g/ha (corn (Zea mays); 125 g ai/ha) of 55% and a pest or weed control at 31 g/ha ([4]; 31 g ai/ha) of 95%. For the same compound, the pest or weed control at 62 g/ha ([4]; 62 g ai/ha) was 100%, the pest or weed control at 125 g/ha ([4]; 125 g ai/ha) was 100% and the pest or weed control at 31 g/ha ([5]; 31 g ai/ha) was 10%. It also gave a pest or weed control at 62 g/ha ([5]; 62 g ai/ha) of 50%, a pest or weed control at 125 g/ha ([5]; 125 g ai/ha) of 85% and a pest or weed control at 31 g/ha ([6]; 31 g ai/ha) of 85%. For the same compound, the pest or weed control at 62 g/ha ([6]; 62 g ai/ha) was 90%, the pest or weed control at 125 g/ha ([6]; 125 g ai/ha) was 95% and the pest or weed control at 31 g/ha ([7]; 31 g ai/ha) was 100%. It also gave a pest or weed control at 62 g/ha ([7]; 62 g ai/ha) of 100%, a pest or weed control at 125 g/ha ([7]; 125 g ai/ha) of 100% and a pest or weed control at 31 g/ha ([8]; 31 g ai/ha) of 100%. For the same compound, the pest or weed control at 62 g/ha ([8]; 62 g ai/ha) was 100%, the pest or weed control at 125 g/ha ([8]; 125 g ai/ha) was 100% and the pest or weed control at 31 g/ha ([9]; 31 g ai/ha) was 0%. For the same compound, the pest or weed control at 62 g/ha ([9]; 62 g ai/ha) was 25%, the pest or weed control at 125 g/ha ([9]; 125 g ai/ha) was 55% and the pest or weed control at 250 g/ha ([9]; 250 g ai/ha) was 85%. It also gave a plant injury at 31 g/ha (soybean (Glycine max); 31 g ai/ha) of 5%, a plant injury at 62 g/ha (soybean (Glycine max); 62 g ai/ha) of 20% and a plant injury at 125 g/ha (soybean (Glycine max); 125 g ai/ha) of 45%. For the same compound, the plant injury at 250 g/ha (soybean (Glycine max); 250 g ai/ha) was 70%, the pest or weed control at 31 g/ha ([10]; 31 g ai/ha) was 65% and the pest or weed control at 62 g/ha ([10]; 62 g ai/ha) was 95%. It also gave a pest or weed control at 125 g/ha ([10]; 125 g ai/ha) of 100%, a pest or weed control at 250 g/ha ([10]; 250 g ai/ha) of 100% and a plant injury at 31 g/ha ([11]; 31 g ai/ha) of 0%. The plant injury at 62 g/ha ([11]; 62 g ai/ha) was 45%, the plant injury at 125 g/ha ([11]; 125 g ai/ha) was 40% and the plant injury at 250 g/ha ([11]; 250 g ai/ha) was 85%. For the same compound, the pest or weed control at 31 g/ha ([12]; 31 g ai/ha) was 0%, the pest or weed control at 62 g/ha ([12]; 62 g ai/ha) was 10% and the pest or weed control at 125 g/ha ([12]; 125 g ai/ha) was 55%.
